Data from US20240261274A1, “TREATMENT OF MYC-DRIVEN CANCERS WITH GSPT1 DEGRADERS” (MONTE ROSA THERAPEUTICS, INC., priority 2021, published 2024).

Experiments:
[1] = tested on: HMEC engineered to express c-Myc tagged with EGFP; experiment: 3D spheroid assay, myc-HMEC (CellTiterGlo3D); type: cell-based; conditions: Homo sapiens, bounds (codes D and E), read-out: EC50 value
Protocol: Human mammary epithelial cells (HMEC) were engineered to express either c-Myc tagged with EGFP or EGFP alone (non myc) (analogous but distinct from Kessler J D et al, Science. 2012 Jan. 20; 335(6066):348-53. doi: 10.1126/science.1212728; Hsu T Y et al, Nature. 2015 Sep. 17; 525(7569):384-8. doi: 10.1038/nature14985). The engineered cells were seeded at 1000 (myc) or 4000 (non myc) cells/well in a 384 ultra-low attachment plate in a total volume of 40 μL HMEC cell culture media (DMEM/F12+10% HI-FBS+15 mM HEPES+0.5 ug/ml Hydrocortisone+10 ug/ml Insulin+20 ng/ml EGF). Plates were spun at 1200 rpm for 5 minutes at room temperature to ensure that cells have gathered in the middle of the well and incubated at 37° C. for 48 hrs before firing with compounds. On Day 2 (48 h post seeding) cells were imaged (brightfield and EGFP fluorescence) using the Celigo imaging cytometer prior to firing compounds. For primary screens, compounds were added at three concentrations (1.25, 10 and 30 uM) in a volume of 120 nL using the ECHO acoustic dispenser and spun at 2000 rpm for 2 minutes at room temperature before incubating at 37° C. for 5 days. […] On Day 7, prior to measuring cell viability using CellTiterGlo3D, cells were imaged (brightfield and EGFP fluorescence) on the Celigo imaging cytometer. The CellTiterGlo3D reagent is added at 30 uL/well and incubated at room temperature for 30 mins. After 30 mins of incubation, luminescence readings were recorded using the Perkin Elmer EnVision reader.

[2] = target: T1, Full length wild-type cereblon CRBN (Homo sapiens, UniProt Q96SW2); experiment: Fluorescence polarization (FP) assay indicating cereblon binding; conditions: bounds stated; read-out: IC50 value
T1 construct: Full length wild-type cereblon CRBN (80.0 nM, 10 μL) was incubated in assay buffer
Protocol: Compound activity was monitored in a fluorescence polarization (FP) homogeneous assay using 1-[5-({2-[2-(2-{[2-(2,6-dioxopiperidin-3-yl)-1,3-dioxo-2,3-dihydro-1H-isoindol-4-yl]oxy}acetamido)ethoxy]ethyl}carbamoyl)pentyl]-3,3-dimethyl-2-[(1E,3E)-5-[(2E)-1,3,3-trimethyl-5-sulfo-2,3-dihydro-1H-indol-2-ylidene]penta-1,3-dien-1-yl]-3H-indol-1-ium-5-sulfonate as a fluorescent probe. Unless otherwise stated, all reagents were purchased from Sigma Aldrich. Enzymatic reactions were conducted in Perkin-Elmer Black 384 well ProxiPlate Plus (catalogue no. 6008269) in 10 μL total volume. Full length wild-type cereblon CRBN (80.0 nM, 10 μL) was incubated in assay buffer containing 20 mM HEPES (pH 8.0), […], 0.5 mM TCEP and 0.05% Tween 20 in the presence or absence of compound (300 nL). Inhibitors were stored as 10 mM DMSO stocks in an inert environment (low humidity, dark, low oxygen, room temperature) using the Storage Pod System. Compounds and DMSO were dispensed using the Echo E5XX (Labcyte Inc. USA) to give concentrations from 300 to 0.937 or 3000 to 9.3 nM in a 12 data point curve. […] Following incubation at room temperature for 30 min, the assay was initiated by dispensing the probe to a final concentration of 5 nM (2.5 nL of a 20 μM stock) using the Echo E5XX. FP was measured after a period of 12 hours using a Pherastar plate reader (BMG Labtech, Germany) exciting at 590 nm and measuring the amount of parallel and perpendicular light at 675 nm. The FP signal was subsequently normalized to the no-compound control (i.e., DMSO). Analysis and IC50 values were derived using Dotmatics (Dotmatics UK) software.

IKZF1 = target: T2, IKZF1 (Homo sapiens, UniProt Q13422+Q96SW2); experiment: Selectivity western blot assay in MM1 S cells, IKZF1; type: cell-based; set-up: key: A represents no degradation observed at 30 μM; B represents trace degradation at 30 μM (below 20%); C represents weak degradation at 30 μM (below 50%); D represents degradation at 30 μM (>90%); E represents degradation at 3 μM (>90%); F represents degradation at 0.3 μM (>90%); conditions: MM1 S cells, 0.3, 3 and 30 μM, 6 hours
T2 construct: endogenous in cells; host or cells: MM1 S (ATCC CRL-2974)
Protocol: (§1) MM1 S cells were purchased from ATCC (cat. Number CRL-2974), sub-cultured in 90% RPMI 1640 with 10% FBS, supplemented with 1×P/S and incubated at 37° C., 5% CO2. Compounds were stored as 10 mM DMSO stock. For the assay, MM1 S cells (3 million cells/well) were plated in 6-well plates and incubated over night. Cells were treated with respective compounds using a serial dilution: 0.3 μM, 3 μM and 30 μM as well as a vehicle only (DMSO) control for 6 hours. Media with suspension cells was subsequently transferred to 15 mL conical tubes, wells rinsed twice with ice-cold PBS and merged with cell suspension in respective 15 mL conical tube. Cells were spinned down, supernatant aspirated, pellets resuspended in ice-cold PBS and transferred to microtubes. Cells were spinned down, supernatant aspirated and pellets resuspended in 120 μL RIPA lysis buffer supplemented with protease and phosphatase inhibitors. Cell lysates were incubated on ice for 20 minutes followed by centrifugation at >20,000×g for 5 min. Supernatants were transferred to fresh microtubes and stored at −80° C. Total protein concentration was determined using a BCA assay with a BSA standard curve and concentration of all samples was adjusted to 1 mg/mL. 25 μL 4×LDS sample buffer supplemented with 100 mM DTT was added to 75 μL sample. Samples were centrifuged (8,000×g, 1 min) and incubated at 95° C. for 5 min followed by another centrifugation step (8,000×g, 1 min). 20 μL of each sample was loaded on a 4-12% gel alongside a protein molecular weight marker. Gels were run in the presence of MOPS buffer at 80 Volts for 30 min, followed by 120 Volts for 1.5 h and proteins subsequently transferred onto nitrocellulose membranes at 20 Volts for 7 min using an iBlot2 Gel Transfer Device. Membranes were then cut horizontally into two pieces, covering 80-50 kDa and 50-25 kDa. Blocking the membranes was performed by gently shaking in 5% (w/v) skim milk in TSB-T for 1 hr at room temperature. All primary antibodies were used at a 1/1000 in 5% (w/v) BSA dissolved in TBST and incubated with membranes over night at 4° C. After three washes with 1×TBST for 5 min, HRP-coupled secondary antibodies diluted in 5% (w/v) BSA/TBST (Goat Anti-Rb IgG, dil. 1/10,000; Goat Anti-Mouse IgG, dil. 1/5000) were added for 1 hr at room temperature. After three washes with 1×TBST (5 minutes each), membranes were incubated with ECL reagent for 1 min at room temperature. Chemiluminescence signals were then detected using a LAS-4000 system with default settings and signals quantified using Image Studio Lite software (version 5.2). Membrane parts previously incubated with antibody against CK1 alpha were stripped off antibodies by incubating with stripping buffer for 30 minutes followed by three washed with TBST (5 min each), blocking with 5% (w/v) skim milk for 1 hr, and incubation with primary antibody against uGAPDH overnight at 4° C. Subsequent washes, incubation with secondary antibody and signal acquisition were performed as described above.

ZFP91 = target: T3, ZFP91 (Homo sapiens, UniProt Q96JP5+Q96SW2); experiment: Selectivity western blot assay in MM1 S cells, ZFP91; type: cell-based; conditions: MM1 S cells, 0.3, 3 and 30 μM, 6 hours
T3 construct: endogenous in cells; host or cells: MM1 S (ATCC CRL-2974)
Protocol: as §1

GSPT1 [3] = target: T4, GSPT1 (Homo sapiens, UniProt P15170+Q96SW2); experiment: Selectivity western blot assay in MM1 S cells, GSPT1; type: cell-based; set-up: endogenous in cells; host or cells: MM1 S (ATCC CRL-2974); conditions: MM1 S cells, 0.3, 3 and 30 μM, 6 hours
Protocol: as §1

IKZF3 = target: T5, IKZF3 (Homo sapiens, UniProt Q96SW2+Q9UKT9); experiment: Selectivity western blot assay in MM1 S cells, IKZF3; type: cell-based; set-up: key: A represents no degradation observed at 30 μM; B represents trace degradation at 30 μM (below 20%); C represents weak degradation at 30 μM (below 50%); D represents degradation at 30 μM (>90%); E represents degradation at 3 μM (>90%); F represents degradation at 0.3 μM (>90%); conditions: MM1 S cells, 0.3, 3 and 30 μM, 6 hours
T5 construct: endogenous in cells; host or cells: MM1 S (ATCC CRL-2974)
Protocol: as §1

CK1alpha = target: T6, CK1alpha (Homo sapiens, UniProt P48729+Q96SW2); experiment: Selectivity western blot assay in MM1 S cells, CK1alpha; type: cell-based; conditions: MM1 S cells, 0.3, 3 and 30 μM, 6 hours
T6 construct: endogenous in cells; host or cells: MM1 S (ATCC CRL-2974)
Protocol: as §1

GSPT1 [4] = target: T4, GSPT1; experiment: GSPT1 degradation immunofluorescence assay in CAL-51 cells; type: cell-based; set-up: endogenous in cells; host or cells: CAL-51 (DSMZ ACC302); conditions: 6 hours, Table 5A, read-out: Activity for GSPT1 degradation, Code (DC50)
Protocol: CAL-51 cells were purchased from DSMZ (cat. Number ACC302), sub-cultured in 90% Dulbecco's MEM (4.5 g/L glucose, Gibco 11965)+10% heat inactivated FBS (BioConcept, 2-01F1361) and incubated at 37° C., 5% CO2. For the assay, imaging microtiterplate Cell Carrier 96 Ultra (Perkin Elmer 6055302) were pre-coated with Fibronectin (Sigma F085, 30 μl at 0.2 μg/ml) in PBS (100 μl, Gibco 14190) for 45 min at room temperature, rinsed with PBS and CAL-51 cells (30K cells/well) were plated and let to adhere overnight. Cells were treated with compounds typically using a serial dilution ranging from 30 μM to 0.1 nM for 6 hours. Compounds were stored at 10 mM DMSO stocks. Vehicle (DMSO), positive (CC-885, 10 μM) and rescue controls (positive control plus 0.2 μM bortezomib) were also included at this stage. Cells were subsequently rinsed with PBS and fixed in 10% Formalin solution (50 μl, Sigma HT5011)) for 20 mins at room temperature. Following three consecutive PBS washes (100 μl), cells were permeabilized in 0.1% Triton X-100 in PBS (Sigma 93443, 50 μl) for 15 mins at room temperature. Following three further PBS washes, 50 μl blocking buffer (1% BSA, Sigma A4503, in PBS) was added for 45 min for signal-to-noise reduction. Primary antibody (human GSPT1, Sigma HPA052488) was diluted in blocking buffer (dil. 1/300, 35 μl/well) and incubated with the cells overnight at 4° C. After three PBS washes, Alexa-fluor 488 coupled secondary antibodies (Invitrogen, A32731, dil. 1/1000), Alexa-fluor 647-Phalloidin (Invitrogen, A22287, dil. 1/200) and DAPI (Thermo, #62248, dil. 1/1000) were diluted in blocking buffer and incubated with the samples for 2 hours at room temperature. After three final PBS washes, samples were conserved in 100 μl PBS in the dark, until measurement. Image acquisition was performed on the Operetta High-Content Imager (Perkin-Elmer). Fluorescence intensity of Alexa-Fluor 488 (GSPT1), Alexa-Fluor 647 (Actin) and DAPI (Nucleus) were measured. For the determination of GSPT1 DC50 values, a custom algorithm implemented in the PerkinElmer image analysis software Harmony-Acapella® was developed. After user-defined setting of adjustment parameters, the analysis was run identically without human intervention for all image fields. DAPI staining of the nuclei was used to determine the location of cells using standard nuclei detection modules. Segmentation artifacts were removed by threshold-based filters for area, roundness and intensity. The outline of the cells was determined analogously from the sum of the normalized, smoothed DAPI and Actin channel, starting from each nucleus. The Alexa-Fluor 488 (GSPT1) signal intensity in each cell was finally measured, in order to obtain a Mean intensity per cell. GSPT1 degradation (DC50) was calculated after normalization to controls and data import in CDD vault Database, using non-linear regression.

T1 sequence (Q96SW2 whole entry): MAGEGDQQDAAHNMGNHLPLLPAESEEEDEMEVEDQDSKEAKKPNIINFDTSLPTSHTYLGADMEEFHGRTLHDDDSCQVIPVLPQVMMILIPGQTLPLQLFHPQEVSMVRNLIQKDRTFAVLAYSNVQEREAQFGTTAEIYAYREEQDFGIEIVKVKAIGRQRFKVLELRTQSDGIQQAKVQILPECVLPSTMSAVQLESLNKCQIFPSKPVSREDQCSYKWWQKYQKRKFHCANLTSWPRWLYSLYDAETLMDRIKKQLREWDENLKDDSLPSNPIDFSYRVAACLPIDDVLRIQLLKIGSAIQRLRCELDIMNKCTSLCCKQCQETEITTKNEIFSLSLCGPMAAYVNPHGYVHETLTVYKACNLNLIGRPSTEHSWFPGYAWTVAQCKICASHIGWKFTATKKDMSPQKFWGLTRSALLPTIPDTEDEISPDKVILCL
T4 sequence (P15170 whole entry): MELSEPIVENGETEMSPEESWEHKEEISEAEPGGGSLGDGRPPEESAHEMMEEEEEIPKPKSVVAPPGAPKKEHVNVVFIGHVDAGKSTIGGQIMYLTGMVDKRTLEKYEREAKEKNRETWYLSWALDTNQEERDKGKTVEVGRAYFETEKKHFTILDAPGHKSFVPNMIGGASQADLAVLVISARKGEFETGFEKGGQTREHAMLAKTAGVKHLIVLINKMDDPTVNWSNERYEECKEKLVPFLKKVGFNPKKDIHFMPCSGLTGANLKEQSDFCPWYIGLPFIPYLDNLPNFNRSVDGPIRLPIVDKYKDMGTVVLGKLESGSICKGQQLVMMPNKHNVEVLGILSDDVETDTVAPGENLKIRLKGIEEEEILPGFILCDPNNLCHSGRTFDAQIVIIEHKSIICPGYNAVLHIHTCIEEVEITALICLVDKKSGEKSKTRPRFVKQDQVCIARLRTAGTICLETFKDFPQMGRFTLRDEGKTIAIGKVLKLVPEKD
T4 sequence (Q96SW2 whole entry): as the sequence (Q96SW2 whole entry) above
T4 sequence (Q16531 whole entry partner): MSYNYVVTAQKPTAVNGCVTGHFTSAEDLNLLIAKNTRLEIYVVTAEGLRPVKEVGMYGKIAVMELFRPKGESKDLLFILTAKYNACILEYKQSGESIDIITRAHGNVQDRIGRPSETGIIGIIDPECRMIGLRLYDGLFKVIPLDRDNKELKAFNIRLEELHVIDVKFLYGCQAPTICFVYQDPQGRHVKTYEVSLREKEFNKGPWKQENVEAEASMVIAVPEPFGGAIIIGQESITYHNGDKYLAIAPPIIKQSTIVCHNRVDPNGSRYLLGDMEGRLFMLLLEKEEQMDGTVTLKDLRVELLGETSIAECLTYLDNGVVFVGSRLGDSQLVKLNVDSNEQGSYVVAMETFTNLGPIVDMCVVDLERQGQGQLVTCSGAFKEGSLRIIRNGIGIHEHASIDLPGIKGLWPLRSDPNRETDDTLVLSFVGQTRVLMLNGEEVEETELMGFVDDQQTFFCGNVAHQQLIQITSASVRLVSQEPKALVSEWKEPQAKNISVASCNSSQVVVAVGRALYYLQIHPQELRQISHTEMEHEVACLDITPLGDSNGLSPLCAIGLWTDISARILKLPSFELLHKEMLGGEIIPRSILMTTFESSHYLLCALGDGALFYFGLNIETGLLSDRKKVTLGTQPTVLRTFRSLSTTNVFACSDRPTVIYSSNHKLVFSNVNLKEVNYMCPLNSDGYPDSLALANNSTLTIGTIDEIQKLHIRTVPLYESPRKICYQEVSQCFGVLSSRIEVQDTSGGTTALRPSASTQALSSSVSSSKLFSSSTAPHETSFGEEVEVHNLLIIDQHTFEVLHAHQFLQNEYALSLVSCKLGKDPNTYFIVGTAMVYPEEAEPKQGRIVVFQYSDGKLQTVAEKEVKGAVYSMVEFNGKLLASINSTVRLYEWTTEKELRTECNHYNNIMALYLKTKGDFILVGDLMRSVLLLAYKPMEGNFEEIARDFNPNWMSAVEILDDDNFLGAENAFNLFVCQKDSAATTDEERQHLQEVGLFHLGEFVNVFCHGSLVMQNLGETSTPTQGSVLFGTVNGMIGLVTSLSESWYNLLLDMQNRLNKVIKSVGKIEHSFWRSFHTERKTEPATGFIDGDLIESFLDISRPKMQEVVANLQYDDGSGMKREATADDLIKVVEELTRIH
T3 sequence (Q96JP5 whole entry): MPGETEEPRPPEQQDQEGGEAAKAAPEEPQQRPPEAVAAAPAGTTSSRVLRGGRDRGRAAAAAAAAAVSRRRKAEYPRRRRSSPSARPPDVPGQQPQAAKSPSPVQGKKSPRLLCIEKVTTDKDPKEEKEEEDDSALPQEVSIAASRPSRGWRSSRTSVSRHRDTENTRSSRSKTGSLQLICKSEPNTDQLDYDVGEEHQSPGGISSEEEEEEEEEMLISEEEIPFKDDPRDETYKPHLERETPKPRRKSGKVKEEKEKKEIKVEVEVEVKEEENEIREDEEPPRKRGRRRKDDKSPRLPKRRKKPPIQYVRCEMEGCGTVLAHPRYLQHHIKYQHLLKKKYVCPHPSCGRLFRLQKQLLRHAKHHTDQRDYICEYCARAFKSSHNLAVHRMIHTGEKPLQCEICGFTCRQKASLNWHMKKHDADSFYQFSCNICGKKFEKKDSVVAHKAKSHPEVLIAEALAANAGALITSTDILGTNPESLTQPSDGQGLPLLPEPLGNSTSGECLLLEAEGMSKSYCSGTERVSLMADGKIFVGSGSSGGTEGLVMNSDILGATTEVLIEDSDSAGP
T3 sequence (Q96SW2 whole entry): as the sequence (Q96SW2 whole entry) above
T3 sequence (Q16531 whole entry partner): as the sequence (Q16531 whole entry partner) above
T2 sequence (Q13422 whole entry): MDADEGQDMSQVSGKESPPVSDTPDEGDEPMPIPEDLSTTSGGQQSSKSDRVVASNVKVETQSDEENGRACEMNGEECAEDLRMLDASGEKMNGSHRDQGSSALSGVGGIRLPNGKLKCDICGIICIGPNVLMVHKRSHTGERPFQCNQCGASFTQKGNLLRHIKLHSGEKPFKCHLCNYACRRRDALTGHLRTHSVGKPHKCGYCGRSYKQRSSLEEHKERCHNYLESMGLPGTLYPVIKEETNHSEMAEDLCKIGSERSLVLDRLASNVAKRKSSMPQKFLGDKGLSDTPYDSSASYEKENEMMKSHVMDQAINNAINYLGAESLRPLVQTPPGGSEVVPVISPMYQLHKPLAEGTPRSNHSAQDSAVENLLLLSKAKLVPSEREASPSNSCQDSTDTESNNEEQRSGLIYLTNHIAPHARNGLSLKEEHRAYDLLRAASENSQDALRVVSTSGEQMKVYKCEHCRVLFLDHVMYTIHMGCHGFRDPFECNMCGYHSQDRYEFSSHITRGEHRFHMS
T2 sequence (Q96SW2 whole entry): as the sequence (Q96SW2 whole entry) above
T2 sequence (Q16531 whole entry partner): as the sequence (Q16531 whole entry partner) above
T6 sequence (P48729 whole entry): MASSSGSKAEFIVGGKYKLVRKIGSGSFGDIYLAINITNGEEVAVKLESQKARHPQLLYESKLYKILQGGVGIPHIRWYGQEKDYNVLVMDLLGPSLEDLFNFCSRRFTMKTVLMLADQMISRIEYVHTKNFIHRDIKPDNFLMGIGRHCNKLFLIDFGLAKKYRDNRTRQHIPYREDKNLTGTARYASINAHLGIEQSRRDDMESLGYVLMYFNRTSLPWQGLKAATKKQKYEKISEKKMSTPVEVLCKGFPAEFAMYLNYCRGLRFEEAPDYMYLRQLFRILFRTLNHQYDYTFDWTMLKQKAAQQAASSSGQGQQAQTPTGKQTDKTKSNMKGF
T6 sequence (Q96SW2 whole entry): as the sequence (Q96SW2 whole entry) above
T6 sequence (Q16531 whole entry partner): as the sequence (Q16531 whole entry partner) above
T5 sequence (Q9UKT9 whole entry): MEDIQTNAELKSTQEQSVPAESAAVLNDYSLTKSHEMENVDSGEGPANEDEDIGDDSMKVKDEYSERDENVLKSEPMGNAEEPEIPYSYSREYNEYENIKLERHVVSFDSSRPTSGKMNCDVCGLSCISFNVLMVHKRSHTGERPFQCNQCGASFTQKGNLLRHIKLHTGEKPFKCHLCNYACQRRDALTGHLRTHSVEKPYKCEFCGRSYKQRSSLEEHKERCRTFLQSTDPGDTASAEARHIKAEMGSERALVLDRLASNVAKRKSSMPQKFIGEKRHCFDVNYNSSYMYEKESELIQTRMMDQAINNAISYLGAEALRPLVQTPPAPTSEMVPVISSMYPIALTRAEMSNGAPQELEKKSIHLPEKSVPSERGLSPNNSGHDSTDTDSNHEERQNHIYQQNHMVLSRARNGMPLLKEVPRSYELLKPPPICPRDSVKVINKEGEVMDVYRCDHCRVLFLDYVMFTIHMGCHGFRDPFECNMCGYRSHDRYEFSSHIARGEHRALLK
T5 sequence (Q96SW2 whole entry): as the sequence (Q96SW2 whole entry) above
T5 sequence (Q16531 whole entry partner): as the sequence (Q16531 whole entry partner) above

| SMILES | EC50 [1] [µM] | IC50 [2] [µM] | also measured |
| --- | --- | --- | --- |
| Cc1cc(C)cc(NC(=O)NCc2ccc3c(c2)C(=O)N(C2CCC(=O)NC2=O)C3)c1 (stereo not shown) [Compound 20] | ≤ 2 | < 0.6 |  |
| CCc1cccc(NC(=O)NCc2ccc3c(c2)C(=O)N(C2CCC(=O)NC2=O)C3)c1 (stereo not shown) [Compound 31] | ≤ 2 |  |  |
| O=C1CCC(N2Cc3ccc(CNC(=O)Nc4ccc(Cl)c(Cl)c4)cc3C2=O)C(=O)N1 (stereo not shown) [Compound 46] | ≤ 2 | < 0.6 |  |
| O=C1CCC(N2Cc3ccc(CNC(=O)Nc4cccc(C(F)(F)F)c4)cc3C2=O)C(=O)N1 (stereo not shown) [Compound 47] | ≤ 2 | < 0.6 |  |
| COc1ccc(NC(=O)NCc2ccc3c(c2)C(=O)N(C2CCC(=O)NC2=O)C3)cc1Cl (stereo not shown) [Compound 59] | ≤ 2 | < 0.6 |  |
| Cc1ccc(NC(=O)NCc2ccc3c(c2)C(=O)N(C2CCC(=O)NC2=O)C3)cc1C (stereo not shown) [Compound 68] | ≤ 2 |  |  |
| O=C1CCC(N2Cc3ccc(COC(=O)Nc4cccc(OC(F)(F)F)c4)cc3C2=O)C(=O)N1 (stereo not shown) [Compound 203] |  |  | IKZF1 degradation (IKZF1): A; ZFP91 degradation (ZFP91): B (B represents trace degradation at 30 μM (below 20%)); GSPT1 degradation (GSPT1 [3]): F (F represents degradation at 0.3 μM (>90%)); IKZF3 degradation (IKZF3): A; CK1alpha degradation (CK1alpha): B (B represents trace degradation at 30 μM (below 20%)); DC50 (GSPT1 [4]): ≤ 0.03 µM |
